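Step 1: Grow cells in 96-well plates. Step 2: Expose to compound for 48 hours at 5 concentrations. Step 3: Interpolate endpoints linearly; if unreached, use highest concentration. Here, GI50 denotes the concentration required for 50% inhibition of growth. Definition used: TGI = concentration required for complete inhibition of growth.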
How the values were obtained:
Test in all cases: growth of human tumour cells (NCI), 48 h
HT29 colon = tested on: HT29 colon
SK-OV-3 ovarian = tested on: SK-OV-3 ovarian
SF-295 CNS = tested on: SF-295 CNS
OVCAR-3 ovarian = tested on: OVCAR-3 ovarian
EKVX NSCLC = tested on: EKVX NSCLC
A498 renal = tested on: A498 renal
SK-MEL-28 melanoma = tested on: SK-MEL-28 melanoma
HS 578T breast = tested on: HS 578T breast
IGROV1 ovarian = tested on: IGROV1 ovarian
MDA-MB-231 breast = tested on: MDA-MB-231 breast
KM12 colon = tested on: KM12 colon
HCC-2998 colon = tested on: HCC-2998 colon
HL-60(TB) leukemia = tested on: HL-60(TB) leukemia
NCI/ADR-RES ovarian = tested on: NCI/ADR-RES ovarian
ACHN renal = tested on: ACHN renal
SK-MEL-2 melanoma = tested on: SK-MEL-2 melanoma
NCI-H23 lung = tested on: NCI-H23 lung
SF-268 CNS = tested on: SF-268 CNS
HOP-92 NSCLC = tested on: HOP-92 NSCLC
HOP-62 NSCLC = tested on: HOP-62 NSCLC
M14 melanoma = tested on: M14 melanoma
SW-620 colon = tested on: SW-620 colon
UO-31 renal = tested on: UO-31 renal
PC-3 prostate = tested on: PC-3 prostate
DU-145 prostate = tested on: DU-145 prostate
RXF 393 renal = tested on: RXF 393 renal
SNB-19 CNS = tested on: SNB-19 CNS
NCI-H460 lung = tested on: NCI-H460 lung

SMILES: COc1cccc2c1C(=O)c1c(O)c3c(c(O)c1C2=O)CC(O)(/C(C)=N/NC(=O)CCCCC(=O)N/N=C(\C)C1(O)Cc2c(O)c4c(c(O)c2C(OC2CC(N)C(O)C(C)O2)C1)C(=O)c1c(OC)cccc1C4=O)CC3OC1CC(N)C(O)C(C)O1 (stereo not given)
- GI50 (HT29 colon): 181 nM
- TGI (HT29 colon): > 50 µM
- GI50 (SK-OV-3 ovarian): 227 nM
- GI50 (SF-295 CNS): 125 nM
- TGI (SF-295 CNS): 689 nM
- GI50 (OVCAR-3 ovarian): 200 nM
- TGI (OVCAR-3 ovarian): 2750 nM
- GI50 (EKVX NSCLC): 418 nM
- TGI (EKVX NSCLC): 21 µM
- GI50 (A498 renal): 567 nM
- TGI (A498 renal): 1340 nM
- GI50 (SK-MEL-28 melanoma): 473 nM
- TGI (SK-MEL-28 melanoma): 1620 nM
- GI50 (HS 578T breast): 263 nM
- TGI (HS 578T breast): 2830 nM
- GI50 (IGROV1 ovarian): 906 nM
- TGI (IGROV1 ovarian): > 21 µM
- GI50 (MDA-MB-231 breast): 749 nM
- TGI (MDA-MB-231 breast): > 50 µM
- GI50 (KM12 colon): 361 nM
- TGI (KM12 colon): 6.12 µM
- GI50 (HCC-2998 colon): 318 nM
- TGI (HCC-2998 colon): 1140 nM
- GI50 (HL-60(TB) leukemia): 159 nM
- TGI (HL-60(TB) leukemia): 2380 nM
- GI50 (NCI/ADR-RES ovarian): 17.9 µM
- TGI (NCI/ADR-RES ovarian): > 50 µM
- GI50 (ACHN renal): 188 nM
- TGI (ACHN renal): 1690 nM
- GI50 (SK-MEL-2 melanoma): 585 nM
- TGI (SK-MEL-2 melanoma): 1790 nM
- GI50 (NCI-H23 lung): 173 nM
- TGI (NCI-H23 lung): 1120 nM
- GI50 (SF-268 CNS): 147 nM
- TGI (SF-268 CNS): 4.58 µM
- GI50 (HOP-92 NSCLC): 137 nM
- TGI (HOP-92 NSCLC): 2450 nM
- GI50 (HOP-62 NSCLC): 218 nM
- TGI (HOP-62 NSCLC): 1930 nM
- GI50 (M14 melanoma): 225 nM
- TGI (M14 melanoma): 1320 nM
- GI50 (SW-620 colon): 147 nM
- TGI (SW-620 colon): 33.4 µM
- GI50 (UO-31 renal): 1340 nM
- TGI (UO-31 renal): > 22 µM
- GI50 (PC-3 prostate): 597 nM
- TGI (PC-3 prostate): 9.18 µM
- GI50 (DU-145 prostate): 163 nM
- TGI (DU-145 prostate): 1930 nM
- GI50 (RXF 393 renal): 209 nM
- TGI (RXF 393 renal): 831 nM
- GI50 (SNB-19 CNS): 164 nM
- TGI (SNB-19 CNS): 1570 nM
- GI50 (NCI-H460 lung): 45.6 nM
- TGI (NCI-H460 lung): 10.9 µM

Source: PubChem BioAssay (NCI)
